We go through two molecules from BindingDB's records for doi:10.1021/jm8005838 (Cephalon, 2008).

Molecules are shown by their SMILES.

The target of the test is Vascular endothelial growth factor receptor 2 (Homo sapiens, UniProt P35968). The test is described as follows: VEGF-R2 Receptor-Linked Tyrosine Kinase Assay. The method, then: Compounds were evaluated for their ability to inhibit the kinase activity using an ELISA-based assay. The 96-well microtiter plate is coated with substrate solution. The reaction is initiated by adding recombinant human VEGF-R2 to reaction mixture containing inhibitor compound. After the incubation, the detection antibody, Eu-N1 antiphosphotyrosine (PT66) antibody, was added, and the fluorescence of the resulting solution was measured using the Victor Multilabel Counter.
Sequence of Vascular endothelial growth factor receptor 2 (P35968 whole entry): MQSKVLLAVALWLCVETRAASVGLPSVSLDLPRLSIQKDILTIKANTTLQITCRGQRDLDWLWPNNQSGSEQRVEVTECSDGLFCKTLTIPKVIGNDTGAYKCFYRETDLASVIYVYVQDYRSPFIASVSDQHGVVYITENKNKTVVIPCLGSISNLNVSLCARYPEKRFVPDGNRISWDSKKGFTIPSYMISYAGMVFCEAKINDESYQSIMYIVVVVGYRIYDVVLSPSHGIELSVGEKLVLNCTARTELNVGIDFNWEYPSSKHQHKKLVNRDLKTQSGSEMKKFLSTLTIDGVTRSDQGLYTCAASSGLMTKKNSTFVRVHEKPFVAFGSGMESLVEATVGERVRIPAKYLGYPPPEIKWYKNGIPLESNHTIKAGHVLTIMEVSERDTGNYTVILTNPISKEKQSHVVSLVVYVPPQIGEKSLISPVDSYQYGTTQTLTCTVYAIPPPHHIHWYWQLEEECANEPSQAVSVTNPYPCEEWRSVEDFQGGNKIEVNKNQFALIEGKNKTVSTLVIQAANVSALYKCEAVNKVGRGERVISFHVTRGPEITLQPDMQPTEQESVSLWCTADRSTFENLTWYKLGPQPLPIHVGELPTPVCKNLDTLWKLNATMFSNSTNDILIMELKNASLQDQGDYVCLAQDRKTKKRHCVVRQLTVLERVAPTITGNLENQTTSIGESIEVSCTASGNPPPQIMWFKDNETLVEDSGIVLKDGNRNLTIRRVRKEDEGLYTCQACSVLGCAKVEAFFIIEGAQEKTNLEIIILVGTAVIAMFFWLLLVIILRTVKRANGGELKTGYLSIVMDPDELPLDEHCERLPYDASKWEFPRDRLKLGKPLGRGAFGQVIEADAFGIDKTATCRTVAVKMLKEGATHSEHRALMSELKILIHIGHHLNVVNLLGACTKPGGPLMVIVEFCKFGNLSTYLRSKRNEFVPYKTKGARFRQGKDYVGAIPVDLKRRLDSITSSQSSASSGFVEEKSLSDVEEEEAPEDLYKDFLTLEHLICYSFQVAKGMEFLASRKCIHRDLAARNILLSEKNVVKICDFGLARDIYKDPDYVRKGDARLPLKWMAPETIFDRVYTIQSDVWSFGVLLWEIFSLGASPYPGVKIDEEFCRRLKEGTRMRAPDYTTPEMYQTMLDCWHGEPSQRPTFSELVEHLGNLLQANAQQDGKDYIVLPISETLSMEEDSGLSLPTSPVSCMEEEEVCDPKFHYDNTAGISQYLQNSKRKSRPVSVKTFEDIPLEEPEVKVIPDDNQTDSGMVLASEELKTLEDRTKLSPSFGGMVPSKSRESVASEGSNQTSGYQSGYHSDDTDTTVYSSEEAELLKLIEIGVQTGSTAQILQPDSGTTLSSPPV

`CC(C)Oc1ccc2c(c1)CCc1c-2c2c(c3c4ccccc4n(CCO)c13)CNC2=O` [3-(2-hydroxyethyl)-20-(propan-2-yloxy)-3,13-diazahexacyclo[14.8.0.0^{2,10}.0^{4,9}.0^{11,15}.0^{17,22}]tetracosa-1(16),2(10),4(9),5,7,11(15),17(22),18,20-nonaen-14-one] displayed an IC50 of 3.38 µM.
`COc1ccc2c(c1)CCc1c-2c2c(c3c4ccccc4n(CCO)c13)CNC2=O` [3-(2-hydroxyethyl)-20-methoxy-3,13-diazahexacyclo[14.8.0.0^{2,10}.0^{4,9}.0^{11,15}.0^{17,22}]tetracosa-1(16),2(10),4(9),5,7,11(15),17(22),18,20-nonaen-14-one] came in with an IC50 of 4.72 µM.

By IC50 is commonly meant the concentration that gives 50% inhibition.
